*1 amine or outer side, *2 acyl side, *3 side chain or, on linkers, in order; H or OH if unused. Where a SMILES comes first, the peptide text is derived from it. Bridges are numbered along the chain shown (N, C = ends). [ ]: non-standard residue; d: D form. The star is where a group is joined. ξ: configuration not given here. hTyr(3S-OH,4S-OH,3'-OSO3H) = N[C@H](C(=O)O)[C@H](O)[C@@H](O)c1ccc(O)c(OS(=O)(=O)O)c1; Orn(4R-OH,5R-OH) = O=C([C@H](C[C@@H](O)[C@@H](O)N[*:3])N[*:1])[*:2]; Orn(4R-OH,5S-OH) = O=C([C@H](C[C@@H](O)[C@H](O)N[*:3])N[*:1])[*:2]; X4 = CCCCCCOc1ccc(-c2nnc(-c3ccc(C(=O)*)cc3)s2)cc1; X6 = CCCCCCCOc1ccc(N2CCN(c3ccc(C(=O)*)cn3)CC2)cc1; Pro(3S-OH,4S-Me) = C[C@H]1CN[C@H](C(=O)O)[C@H]1O; X1 = CCCCCCOc1ccc(N2CCN(c3ccc(C(=O)*)cc3)CC2)cc1; X2 = CCCCCOc1ccc(-c2cc(-c3ccc(C(=O)*)cc3)no2)cc1; X3 = CCCCOc1ccc(-c2ccc(-c3ccc(C(=O)*)cc3)cc2)cc1; X5 = CCCCCOc1ccc(-c2cc(-c3ccc(C(=O)*)cc3)on2)cc1; X7 = CCCCCCOc1ccc(C2CCN(c3ccc(C(=O)*)cc3)CC2)cc1; X8 = CCCCCOc1ccc(-c2nc(-c3ccc(C(=O)*)cc3)cs2)cc1; Benzoyl(4-octyloxy) = CCCCCCCCOc1ccc(C(=O)*)cc1; Gln(3R-OH) = NC(=O)C[C@@H](O)[C@H](N)C(=O)O; Hyp = O=C(O)[C@@H]1C[C@@H](O)CN1; ξThr(3R) = C[C@@H](O)C(N)C(=O)O
Tests used:
[1] = Hemolytic activity in human erythrocytes at 1 mg/ml; assay type: ADME, cell-based, Erythrocyte; details: read-out: Activity
Candida albicans [2] = assay: Antifungal activity against Candida albicans FP633 in mouse serum; assay type: functional
Aspergillus fumigatus [3] = assay: Antifungal activity against Aspergillus fumigatus FP1305 in RPMI media; assay type: functional
Aspergillus fumigatus [4] = assay: Antifungal activity against Aspergillus fumigatus FP1305 in mouse serum; assay type: functional
Candida albicans [5] = assay: Antifungal activity against Candida albicans FP633 in RPMI media; assay type: functional
Candida albicans [6] = assay: Antifungal activity against Candida albicans FP633 infected in mouse; assay type: functional
Aspergillus fumigatus [7] = assay: Antifungal activity against Aspergillus fumigatus FP1305 infected in mouse
[8] = Concentration in mouse plasma at 5 mg/kg, iv after 30 mins; assay type: ADME, organism-based; design: dose 5 mg/kg, route intravenous
[9] = AUC (0 to infinity) in mouse at 5 mg/kg, iv after 30 mins; assay type: ADME, organism-based; design: time infinity, dose 5 mg/kg, route intravenous; details: plasma
[10] = Half life in mouse at 5 mg/kg, iv after 30 mins; assay type: ADME, organism-based; design: dose 5 mg/kg, route intravenous; details: in vivo

MIC (Candida albicans [2]) [µg/mL] | IC50 (Aspergillus fumigatus [3]) [µg/mL] | MIC (Aspergillus fumigatus [4]) [µg/mL] | MIC (Candida albicans [5]) [µg/mL] | SMILES | hemolysis at 1 mg/ml [1] [%] | ED50 (Candida albicans [6]) [mg/kg] | ED50 (Aspergillus fumigatus [7]) [mg/kg] | concentration at 0.5 h [8] [ng/mL] | AUC(0-inf) [9] [µg·h/mL] | half-life [10] [h]
0.78 | 0.002 | 0.78 | 0.05 | CCCCCCOc1ccc(-c2nnc(-c3ccc(C(=O)N[C@H]4C[C@@H](O)[C@@H](O)NC(=O)[C@@H]5[C@@H](O)[C@@H](C)CN5C(=O)[C@H]([C@H](O)CC(N)=O)NC(=O)[C@H]([C@H](O)[C@@H](O)c5ccc(O)c(OS(=O)(=O)[O-])c5)NC(=O)[C@@H]5C[C@@H](O)CN5C(=O)C([C@@H](C)O)NC4=O)cc3)s2)cc1.[Na+] (stereo partly drawn) (X4-[Orn(4R-OH,5R-OH)][ξThr(3R)][Hyp][hTyr(3S-OH,4S-OH,3'-OSO3H)][Gln(3R-OH)][Pro(3S-OH,4S-Me)]; lactam 1-C) | 42 |  |  |  |  | 
3.13 | 0.005 | 6.25 | 0.2 | CCCCCCCOc1ccc(N2CCN(c3ccc(C(=O)N[C@H]4C[C@@H](O)[C@@H](O)NC(=O)[C@@H]5[C@@H](O)[C@@H](C)CN5C(=O)[C@H]([C@H](O)CC(N)=O)NC(=O)[C@H]([C@H](O)[C@@H](O)c5ccc(O)c(OS(=O)(=O)[O-])c5)NC(=O)[C@@H]5C[C@@H](O)CN5C(=O)C([C@@H](C)O)NC4=O)cn3)CC2)cc1.[Na+] (stereo partly drawn) (X6-[Orn(4R-OH,5R-OH)][ξThr(3R)][Hyp][hTyr(3S-OH,4S-OH,3'-OSO3H)][Gln(3R-OH)][Pro(3S-OH,4S-Me)]; lactam 1-C) | < 20 |  |  |  |  | 
3.13 | 0.002 | 1.56 | 0.1 | CCCCCCOc1ccc(N2CCN(c3ccc(C(=O)N[C@H]4C[C@@H](O)[C@@H](O)NC(=O)[C@@H]5[C@@H](O)[C@@H](C)CN5C(=O)[C@H]([C@H](O)CC(N)=O)NC(=O)[C@H]([C@H](O)[C@@H](O)c5ccc(O)c(OS(=O)(=O)[O-])c5)NC(=O)[C@@H]5C[C@@H](O)CN5C(=O)C([C@@H](C)O)NC4=O)cc3)CC2)cc1.[Na+] (stereo partly drawn) (X1-[Orn(4R-OH,5R-OH)][ξThr(3R)][Hyp][hTyr(3S-OH,4S-OH,3'-OSO3H)][Gln(3R-OH)][Pro(3S-OH,4S-Me)]; lactam 1-C) | < 20 | 0.395 | 0.531 | 18800 | 105 | 3.5
 |  |  |  | CCCCCOc1ccc(-c2cc(-c3ccc(C(=O)N[C@H]4C[C@@H](O)[C@@H](O)NC(=O)[C@@H]5[C@@H](O)[C@@H](C)CN5C(=O)[C@H]([C@H](O)CC(N)=O)NC(=O)[C@H]([C@H](O)[C@@H](O)c5ccc(O)c(OS(=O)(=O)O)c5)NC(=O)[C@@H]5C[C@@H](O)CN5C(=O)[C@H]([C@@H](C)O)NC4=O)cc3)no2)cc1 (X2-[Orn(4R-OH,5R-OH)]T[Hyp][hTyr(3S-OH,4S-OH,3'-OSO3H)][Gln(3R-OH)][Pro(3S-OH,4S-Me)]; lactam 1-C) | < 20 |  |  |  |  | 
1.56 | 0.001 | 0.78 | 0.05 | CCCCCOc1ccc(-c2cc(-c3ccc(C(=O)N[C@H]4C[C@@H](O)[C@@H](O)NC(=O)[C@@H]5[C@@H](O)[C@@H](C)CN5C(=O)[C@H]([C@H](O)CC(N)=O)NC(=O)[C@H]([C@H](O)[C@@H](O)c5ccc(O)c(OS(=O)(=O)[O-])c5)NC(=O)[C@@H]5C[C@@H](O)CN5C(=O)C([C@@H](C)O)NC4=O)cc3)on2)cc1.[Na+] (stereo partly drawn) (X5-[Orn(4R-OH,5R-OH)][ξThr(3R)][Hyp][hTyr(3S-OH,4S-OH,3'-OSO3H)][Gln(3R-OH)][Pro(3S-OH,4S-Me)]; lactam 1-C) | 38 |  |  |  |  | 
1.56 | 0.003 | 1.56 | 0.05 | CCCCCCOc1ccc(C2CCN(c3ccc(C(=O)N[C@H]4C[C@@H](O)[C@@H](O)NC(=O)[C@@H]5[C@@H](O)[C@@H](C)CN5C(=O)[C@H]([C@H](O)CC(N)=O)NC(=O)[C@H]([C@H](O)[C@@H](O)c5ccc(O)c(OS(=O)(=O)[O-])c5)NC(=O)[C@@H]5C[C@@H](O)CN5C(=O)C([C@@H](C)O)NC4=O)cc3)CC2)cc1.[Na+] (stereo partly drawn) (X7-[Orn(4R-OH,5R-OH)][ξThr(3R)][Hyp][hTyr(3S-OH,4S-OH,3'-OSO3H)][Gln(3R-OH)][Pro(3S-OH,4S-Me)]; lactam 1-C) | 33 |  |  |  |  | 
6.25 |  | 3.13 | 0.1 | CCCCCOc1ccc(-c2nc(-c3ccc(C(=O)N[C@H]4C[C@@H](O)[C@@H](O)NC(=O)[C@@H]5[C@@H](O)[C@@H](C)CN5C(=O)[C@H]([C@H](O)CC(N)=O)NC(=O)[C@H]([C@H](O)[C@@H](O)c5ccc(O)c(OS(=O)(=O)[O-])c5)NC(=O)[C@@H]5C[C@@H](O)CN5C(=O)C([C@@H](C)O)NC4=O)cc3)cs2)cc1.[Na+] (stereo partly drawn) (X8-[Orn(4R-OH,5R-OH)][ξThr(3R)][Hyp][hTyr(3S-OH,4S-OH,3'-OSO3H)][Gln(3R-OH)][Pro(3S-OH,4S-Me)]; lactam 1-C) | < 20 |  |  |  |  | 
1.56 | 0.002 | 1.56 | 0.025 | CCCCOc1ccc(-c2ccc(-c3ccc(C(=O)N[C@H]4C[C@@H](O)[C@@H](O)NC(=O)[C@@H]5[C@@H](O)[C@@H](C)CN5C(=O)[C@H]([C@H](O)CC(N)=O)NC(=O)[C@H]([C@H](O)[C@@H](O)c5ccc(O)c(OS(=O)(=O)[O-])c5)NC(=O)[C@@H]5C[C@@H](O)CN5C(=O)[C@H]([C@@H](C)O)NC4=O)cc3)cc2)cc1.[Na+] (X3-[Orn(4R-OH,5R-OH)]T[Hyp][hTyr(3S-OH,4S-OH,3'-OSO3H)][Gln(3R-OH)][Pro(3S-OH,4S-Me)]; lactam 1-C) | 79 | 0.447 |  |  |  | 

SMILES | MIC (Candida albicans [2]) [µg/mL] | IC50 (Aspergillus fumigatus [3]) [µg/mL] | MIC (Aspergillus fumigatus [4]) [µg/mL] | MIC (Candida albicans [5]) [µg/mL] | hemolysis at 1 mg/ml [1] [%] | ED50 (Candida albicans [6]) [mg/kg] | ED50 (Aspergillus fumigatus [7]) [mg/kg] | concentration at 0.5 h [8] [ng/mL] | AUC(0-inf) [9] [µg·h/mL] | half-life [10] [h]
CCCCCOc1ccc(-c2cc(-c3ccc(C(=O)N[C@H]4C[C@@H](O)[C@@H](O)NC(=O)[C@@H]5[C@@H](O)[C@@H](C)CN5C(=O)[C@H]([C@H](O)CC(N)=O)NC(=O)[C@H]([C@H](O)[C@@H](O)c5ccc(O)c(OS(=O)(=O)[O-])c5)NC(=O)[C@@H]5C[C@@H](O)CN5C(=O)C([C@@H](C)O)NC4=O)cc3)no2)cc1.[Na+] (stereo partly drawn) (X2-[Orn(4R-OH,5R-OH)][ξThr(3R)][Hyp][hTyr(3S-OH,4S-OH,3'-OSO3H)][Gln(3R-OH)][Pro(3S-OH,4S-Me)]; lactam 1-C) | 1.56 | 0.002 | 1.56 | 0.05 |  | 0.325 | 0.228 | 10100 | 78 | 5.1
CCCCCCCCOc1ccc(C(=O)N[C@H]2C[C@@H](O)[C@H](O)NC(=O)[C@@H]3[C@@H](O)[C@@H](C)CN3C(=O)[C@H]([C@H](O)CC(N)=O)NC(=O)[C@H]([C@H](O)[C@@H](O)c3ccc(O)c(OS(=O)(=O)[O-])c3)NC(=O)[C@@H]3C[C@@H](O)CN3C(=O)[C@H]([C@@H](C)O)NC2=O)cc1.[Na+] [FR-131535] ({Benzoyl(4-octyloxy)}-[Orn(4R-OH,5S-OH)]T[Hyp][hTyr(3S-OH,4S-OH,3'-OSO3H)][Gln(3R-OH)][Pro(3S-OH,4S-Me)]; lactam 1-C) | 25 |  | 12.5 |  |  |  |  | 30300 | 109 | 2

— ChEMBL document CHEMBL1145626, “Novel echinocandin antifungals. Part 2: Optimization of the side chain of the natural product FR901379. Discovery of micafungin” (Bioorg Med Chem Lett, 2008)
